Assay results published in US20210330611A1, “THERAPY FOR NEUROLOGICAL DISEASES/DISORDERS” (priority 2020, published 2021).
Counter-ions that a name gives are not always drawn. Like-named read-outs stand apart in the source and are kept apart here.

Experiments:
[1] = system: fibrin-induced microglia activation; assay: Image-based assay of fibrin-induced microglia activation (HTS and dose response); format: cell-based, rat; details: primary microglia HTS, fibrin stimulation; for inhibition at 10 µM: Rattus norvegicus, Microglia, read-out: Fibrin % inhibition
primary rat microglia [2] = assay: Cell toxicity (dead cells, size <150 μm2) in coated fibrin (cFib) assay; details: primary microglia HTS;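 also: share of dead cells sized under 150 µm2 at 10 µM in fibrin-stimulated microglia HTS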
[3] = system: LPS-induced microglia activation; assay: Image-based assay of LPS-induced microglia activation (HTS and dose response); format: cell-based, rat; details: for inhibition at 10 µM: Rattus norvegicus, Microglia, read-out: LPS % inhibition
[4] = system: fibrin- and LPS-induced microglia activation; assay: cells; format: cell-based, rat
primary rat microglia [5] = system: primary rat microglia
[6] = fibrin assay, dead cells (size <150 μm2)
[7] = primary microglia HTS, LPS stimulation, compounds at 10 μM
[8] = quadrant by fibrin and LPS inhibition, HTS at 10 μM
[9] = fibrin assay, dead cells (size <150 μm2), compounds at 10 μM
[10] = classification by fibrin and LPS inhibition, HTS at 10 μM
[11] = cell size >800 μm2 as marker of activation
[12] = fibrin stimulation, cell size <150 μm2 as marker of toxicity
[13] = classification by fibrin and LPS inhibition in HTS
[14] = primary microglia HTS, LPS stimulation, compounds at 10 μM, 10 µM

CCC(C)(C)c1ccc(CC(C)CN2C[C@@H](C)O[C@@H](C)C2)cc1 (stereo partly shown) [Amorolfine]
inhibition at 10 µM ([1]; compounds at 10 μM): 6%
Fibrin % cell toxicity (primary rat microglia [2]; [6]): 1%
inhibition at 10 µM [3, 7]: 22%
Quadrant (FIG. 5b) [4, 8]: Q4
LPS % cell toxicity (primary rat microglia [5]; rat): 0%

Cc1onc(-c2c(Cl)cccc2Cl)c1C(=O)N[C@@H]1C(=O)N2[C@@H]1SC(C)(C)[C@@H]2C(=O)O [Dicloxacillin]
inhibition at 10 µM ([1]; compounds at 10 μM): -23%
Fibrin % cell toxicity (primary rat microglia [2]; [9]): 0%
inhibition at 10 µM [3, 7]: 14%
Quadrant (FIG. 5b) [4, 10]: Q4
LPS % cell toxicity (primary rat microglia [5]; rat): 0%

CCN(CC)C(C)CN1c2ccccc2Sc2ccccc21 (stereo not shown) [Ethopropazine]
inhibition at 10 µM ([1]; compounds at 10 μM): 31%
Fibrin % cell toxicity (primary rat microglia [2]; [9]): 1%
inhibition at 10 µM [3, 7]: 30%
Quadrant (FIG. 5b) [4, 10]: Q4
LPS % cell toxicity (primary rat microglia [5]; rat): 0%

CC(=O)OCC(=O)NCCCOc1cccc(CN2CCCCC2)c1 [Roxatidine acetate]
inhibition at 10 µM [1, 11]: 22%
Fibrin % cell toxicity (primary rat microglia [2]; [12]): 1%
inhibition at 10 µM ([3]; 48 h): 6%
Quadrant (FIG. 5b) [4, 13]: Q4
LPS % cell toxicity (primary rat microglia [5]; rat): 0%

CCC(=O)Oc1ccc2c(c1)CC[C@@H]1[C@@H]2CC[C@]2(C)[C@@H](OC(=O)CC)CC[C@@H]12 [Estradiol Dipropionate]
inhibition at 10 µM ([1]; compounds at 10 μM): 0%
Fibrin % cell toxicity (primary rat microglia [2]; [9]): 1%
inhibition at 10 µM [3, 7]: 17%
Quadrant (FIG. 5b) [4, 10]: Q4
LPS % cell toxicity (primary rat microglia [5]; rat): 1%

CC(=O)NC(Cc1ccccc1)C(=O)O (stereo not shown) [Afalanine]
inhibition at 10 µM ([1]; compounds at 10 μM): 0%
Fibrin % cell toxicity (primary rat microglia [2]; [6]): 1%
inhibition at 10 µM [3, 7]: 10%
Quadrant (FIG. 5b) [4, 8]: Q4
LPS % cell toxicity (primary rat microglia [5]; rat): 0%

C/C(=C(\CCOP(=O)(O)O)SC(=O)c1ccccc1)N(C=O)Cc1cnc(C)nc1N [Benfotiamine]
inhibition at 10 µM ([1]; compounds at 10 μM): -47%
Fibrin % cell toxicity (primary rat microglia [2]; [6]): 0%
inhibition at 10 µM [3, 7]: 18%
Quadrant (FIG. 5b) [4, 8]: Q4
LPS % cell toxicity (primary rat microglia [5]; rat): 0%

O=C(O)CCCO [Sodium Oxybate]
inhibition at 10 µM [1, 11]: -5%
Fibrin % cell toxicity (primary rat microglia [2]; [12]): 1%
inhibition at 10 µM ([3]; 48 h): 34%
Quadrant (FIG. 5b) [4, 13]: Q4
LPS % cell toxicity (primary rat microglia [5]; rat): 0%

CC(=O)N(O)CCCCCNC(=O)CCC(=O)N(O)CCCCCNC(=O)CCC(=O)N(O)CCCCCN [Deferoxamine]
inhibition at 10 µM ([1]; compounds at 10 μM): 2%
Fibrin % cell toxicity (primary rat microglia [2]; [9]): 1%
inhibition at 10 µM [3, 7]: 32%
Quadrant (FIG. 5b) [4, 10]: Q4
LPS % cell toxicity (primary rat microglia [5]; rat): 0%

CC(=O)CC(c1ccc([N+](=O)[O-])cc1)c1c(O)c2ccccc2oc1=O (stereo not shown) [Acenocoumarol, Acenocoumarin]
Fibrin % inhibition ([1]; compounds at 10 μM): −38%
Fibrin % cell toxicity (primary rat microglia [2]; [6]): 0%
LPS % inhibition [3, 7]: 14%
Quadrant (FIG. 5b) [4, 8]: Q4
LPS % cell toxicity (primary rat microglia [5]): 0%

CC1CC(OC(=O)C(O)c2ccccc2)CC(C)(C)C1 (stereo not shown) [Cyclandelate]
inhibition at 10 µM ([1]; compounds at 10 μM): -57%
Fibrin % cell toxicity (primary rat microglia [2]; [9]): 0%
inhibition at 10 µM [3, 7]: 4%
Quadrant (FIG. 5b) [4, 10]: Q4
LPS % cell toxicity (primary rat microglia [5]; rat): 0%

CN1CCCC(n2nc(Cc3ccc(Cl)cc3)c3ccccc3c2=O)CC1 (stereo not shown) [Azelastine, Azelastine Hydrochloride]
Fibrin % inhibition ([1]; compounds at 10 μM): 5%
Fibrin % cell toxicity (primary rat microglia [2]; [6]): 0%
LPS % inhibition [3, 7]: 11%
Quadrant (FIG. 5b) [4, 8]: Q4
LPS % cell toxicity (primary rat microglia [5]): 0%

[N-]=[N+]=CC(=O)OC[C@H](N)C(=O)O [Azaserine]
inhibition at 10 µM ([1]; compounds at 10 μM): 8%
Fibrin % cell toxicity (primary rat microglia [2]; [6]): 1%
inhibition at 10 µM [3, 7]: 2%
Quadrant (FIG. 5b) [4, 8]: Q4
LPS % cell toxicity (primary rat microglia [5]; rat): 0%

CCN(CC)C(=O)c1cccc(C)c1 [Deet, Diethyltoluamide]
Fibrin % inhibition ([1]; compounds at 10 μM): −38%
Fibrin % cell toxicity (primary rat microglia [2]; [9]): 0%
LPS % inhibition [3, 7]: 6%
Quadrant (FIG. 5b) [4, 10]: Q4
LPS % cell toxicity (primary rat microglia [5]): 0%

CC(CCc1ccc(O)cc1)NCCc1ccc(O)c(O)c1 (stereo not shown) [Dobutamine Hydrochloride]
Fibrin % inhibition ([1]; compounds at 10 μM, 10 µM): 22%
Fibrin % cell toxicity (primary rat microglia [2]; [9]): 1%
LPS % inhibition [3, 14]: 27%
Quadrant (FIG. 5b) [4, 10]: Q4
LPS % cell toxicity (primary rat microglia [5]; rat): 0%

Pizotyline Malate
Fibrin % inhibition [1, 11]: 8%
Fibrin % cell toxicity (primary rat microglia [2]; [12]): 1%
LPS % inhibition [3]: 37%
Quadrant (FIG. 5b) [4, 13]: Q4
LPS % cell toxicity (primary rat microglia [5]): 1%

CCCCC[C@H](O)/C=C/[C@@H]1[C@@H](C/C=C\CCCC(=O)O)[C@@H](O)C[C@H]1O [Dinoprost Tromethamine]
inhibition at 10 µM ([1]; compounds at 10 μM): 36%
Fibrin % cell toxicity (primary rat microglia [2]; [9]): 1%
inhibition at 10 µM [3, 7]: 15%
Quadrant (FIG. 5b) [4, 10]: Q4
LPS % cell toxicity (primary rat microglia [5]; rat): 0%

Eprinomectin
Fibrin % inhibition ([1]; compounds at 10 μM): −3%
Fibrin % cell toxicity (primary rat microglia [2]; [9]): 1%
LPS % inhibition [3, 7]: 8%
Quadrant (FIG. 5b) [4, 10]: Q4
LPS % cell toxicity (primary rat microglia [5]): 1%

CCN1CCCC(OC(=O)C(c2ccccc2)c2ccccc2)C1 (stereo not shown) [Piperidolate Hydrochloride]
inhibition at 10 µM [1, 11]: -21%
Fibrin % cell toxicity (primary rat microglia [2]; [12]): 0%
inhibition at 10 µM ([3]; 48 h, primary microglia HTS, LPS stimulation, cell size >800 μm2 as marker of activation): 8%
Quadrant (FIG. 5b) [4, 13]: Q4
LPS % cell toxicity (primary rat microglia [5]; rat): 0%

CO[C@H]1/C=C/O[C@@]2(C)Oc3c(C)c(O)c4c(O)c(c5c(nc6cc(C)ccn65)c4c3C2=O)NC(=O)/C(C)=C\C=C\[C@H](C)[C@H](O)[C@@H](C)[C@@H](O)[C@@H](C)[C@H](OC(C)=O)[C@@H]1C [Rifaximin]
inhibition at 10 µM [1, 11]: 6%
Fibrin % cell toxicity (primary rat microglia [2]; [12]): 0%
inhibition at 10 µM ([3]; 48 h): 22%
Quadrant (FIG. 5b) [4, 13]: Q4
LPS % cell toxicity (primary rat microglia [5]; rat): 2%

O=P(O)(O)C(O)(Cc1cccnc1)P(=O)(O)O [Risedronate]
inhibition at 10 µM [1, 11]: 47%
Fibrin % cell toxicity (primary rat microglia [2]; [12]): 1%
inhibition at 10 µM ([3]; 48 h): 15%
Quadrant (FIG. 5b) [4, 13]: Q4
LPS % cell toxicity (primary rat microglia [5]; rat): 0%

N=C(N)NN [Aminoguanidine]
inhibition at 10 µM ([1]; compounds at 10 μM): -25%
Fibrin % cell toxicity (primary rat microglia [2]; [6]): 0%
inhibition at 10 µM [3, 7]: 12%
Quadrant (FIG. 5b) [4, 8]: Q4
LPS % cell toxicity (primary rat microglia [5]; rat): 0%

C[C@@H](O)CN(CCN(C[C@@H](C)O)C[C@@H](C)O)C[C@@H](C)O [Editol]
Fibrin % inhibition ([1]; compounds at 10 μM): 24%
Fibrin % cell toxicity (primary rat microglia [2]; [9]): 1%
LPS % inhibition [3, 7]: 3%
Quadrant (FIG. 5b) [4, 10]: Q4
LPS % cell toxicity (primary rat microglia [5]): 0%

c1ccc2c(c1)sc1ccccc12 [Dibenzothiophene]
inhibition at 10 µM ([1]; compounds at 10 μM): -21%
Fibrin % cell toxicity (primary rat microglia [2]; [9]): 0%
inhibition at 10 µM [3, 7]: 14%
Quadrant (FIG. 5b) [4, 10]: Q4
LPS % cell toxicity (primary rat microglia [5]; rat): 0%

CCCOc1cc(N)ccc1C(=O)OCCN(CC)CC [Propoxycaine]
inhibition at 10 µM [1, 11]: 13%
Fibrin % cell toxicity (primary rat microglia [2]; [12]): 0%
inhibition at 10 µM ([3]; 48 h): 14%
Quadrant (FIG. 5b) [4, 13]: Q4
LPS % cell toxicity (primary rat microglia [5]; rat): 0%

FCOC(C(F)(F)F)C(F)(F)F [Sevoflurane]
inhibition at 10 µM [1, 11]: -1%
Fibrin % cell toxicity (primary rat microglia [2]; [12]): 1%
inhibition at 10 µM ([3]; 48 h): 17%
Quadrant (FIG. 5b) [4, 13]: Q4
LPS % cell toxicity (primary rat microglia [5]; rat): 1%

CCOc1cc(C=O)ccc1O [Ethyl Vanillin]
inhibition at 10 µM ([1]; compounds at 10 μM): -15%
Fibrin % cell toxicity (primary rat microglia [2]; [9]): 0%
inhibition at 10 µM [3, 7]: 18%
Quadrant (FIG. 5b) [4, 10]: Q4
LPS % cell toxicity (primary rat microglia [5]; rat): 0%

Br.CN1[C@H]2C[C@H](OC(=O)[C@H](CO)c3ccccc3)C[C@@H]1[C@@H](O)C2 [Anisodamine Hydrobromide]
Fibrin % inhibition ([1]; compounds at 10 μM): −41%
Fibrin % cell toxicity (primary rat microglia [2]; [6]): 1%
LPS % inhibition [3, 7]: 4%
Quadrant (FIG. 5b) [4, 8]: Q4
LPS % cell toxicity (primary rat microglia [5]): 0%

CC1(C)S[C@@H]2[C@H](NC(=O)[C@H](NC(=O)N3CCNC3=O)c3ccccc3)C(=O)N2[C@H]1C(=O)O [Azlocillin Sodium]
Fibrin % inhibition ([1]; compounds at 10 μM, 10 µM): −5%
Fibrin % cell toxicity (primary rat microglia [2]; [6]): 0%
LPS % inhibition [3, 14]: 17%
Quadrant (FIG. 5b) [4, 8]: Q4
LPS % cell toxicity (primary rat microglia [5]; rat): 0%

CCCCC(CC)COc1ccc(-c2nc(-c3ccc(OC)cc3)nc(-c3ccc(OCC(CC)CCCC)cc3O)n2)c(O)c1 (stereo not shown) [Bemotrizinol]
Fibrin % inhibition ([1]; compounds at 10 μM): −23%
Fibrin % cell toxicity (primary rat microglia [2]; [6]): 1%
LPS % inhibition [3, 7]: 16%
Quadrant (FIG. 5b) [4, 8]: Q4
LPS % cell toxicity (primary rat microglia [5]): 0%

CCC1(C)OC(=O)N(C)C1=O (stereo not shown) [Paramethadione]
inhibition at 10 µM [1, 11]: -15%
Fibrin % cell toxicity (primary rat microglia [2]; [12]): 0%
inhibition at 10 µM ([3]; 48 h): 3%
Quadrant (FIG. 5b) [4, 13]: Q4
LPS % cell toxicity (primary rat microglia [5]; rat): 0%

CCN1CC(CCN2CCOCC2)C(c2ccccc2)(c2ccccc2)C1=O (stereo not shown) [Doxapram Hydrochloride]
inhibition at 10 µM ([1]; compounds at 10 μM): -18%
Fibrin % cell toxicity (primary rat microglia [2]; [9]): 0%
inhibition at 10 µM [3, 7]: 9%
Quadrant (FIG. 5b) [4, 10]: Q4
LPS % cell toxicity (primary rat microglia [5]; rat): 0%

CCc1cn([C@H]2C[C@H](O)[C@@H](CO)O2)c(=O)[nH]c1=O [Edoxudine]
inhibition at 10 µM ([1]; compounds at 10 μM): -10%
Fibrin % cell toxicity (primary rat microglia [2]; [9]): 0%
inhibition at 10 µM [3, 7]: 1%
Quadrant (FIG. 5b) [4, 10]: Q4
LPS % cell toxicity (primary rat microglia [5]; rat): 0%

Cc1ncc([N+](=O)[O-])n1CC(C)O (stereo not shown) [Secnidazole]
inhibition at 10 µM [1, 11]: -24%
Fibrin % cell toxicity (primary rat microglia [2]; [12]): 1%
inhibition at 10 µM ([3]; 48 h): 22%
Quadrant (FIG. 5b) [4, 13]: Q4
LPS % cell toxicity (primary rat microglia [5]; rat): 2%

CC(C)NC(=N)NC(=N)Nc1ccc(Cl)cc1 [Proguanil; Chlorguanide Hydrochloride]
Fibrin % inhibition [1, 11]: −7%
Fibrin % cell toxicity (primary rat microglia [2]; [12]): 0%
LPS % inhibition [3]: 20%
Quadrant (FIG. 5b) [4, 13]: Q4
LPS % cell toxicity (primary rat microglia [5]): 1%
